# Data: ChEMBL document CHEMBL1201862, “PubChem BioAssay data set” (2004)
# Calls of active or inactive are those of the source.
# Legend:
# [1] = target: T1, Eukaryotic translation initiation factor 2-alpha kinase 3 (Homo sapiens, UniProt Q9NZJ5); assay: Counterscreen assay for PERK inhibitors: Dose response cell-based high throughput screening assay to measure inhibition of PERK at 6 hours. [Related pubchem assays: 1522, 1416 ]; format: functional
# T1 sequence (Q9NZJ5 whole entry): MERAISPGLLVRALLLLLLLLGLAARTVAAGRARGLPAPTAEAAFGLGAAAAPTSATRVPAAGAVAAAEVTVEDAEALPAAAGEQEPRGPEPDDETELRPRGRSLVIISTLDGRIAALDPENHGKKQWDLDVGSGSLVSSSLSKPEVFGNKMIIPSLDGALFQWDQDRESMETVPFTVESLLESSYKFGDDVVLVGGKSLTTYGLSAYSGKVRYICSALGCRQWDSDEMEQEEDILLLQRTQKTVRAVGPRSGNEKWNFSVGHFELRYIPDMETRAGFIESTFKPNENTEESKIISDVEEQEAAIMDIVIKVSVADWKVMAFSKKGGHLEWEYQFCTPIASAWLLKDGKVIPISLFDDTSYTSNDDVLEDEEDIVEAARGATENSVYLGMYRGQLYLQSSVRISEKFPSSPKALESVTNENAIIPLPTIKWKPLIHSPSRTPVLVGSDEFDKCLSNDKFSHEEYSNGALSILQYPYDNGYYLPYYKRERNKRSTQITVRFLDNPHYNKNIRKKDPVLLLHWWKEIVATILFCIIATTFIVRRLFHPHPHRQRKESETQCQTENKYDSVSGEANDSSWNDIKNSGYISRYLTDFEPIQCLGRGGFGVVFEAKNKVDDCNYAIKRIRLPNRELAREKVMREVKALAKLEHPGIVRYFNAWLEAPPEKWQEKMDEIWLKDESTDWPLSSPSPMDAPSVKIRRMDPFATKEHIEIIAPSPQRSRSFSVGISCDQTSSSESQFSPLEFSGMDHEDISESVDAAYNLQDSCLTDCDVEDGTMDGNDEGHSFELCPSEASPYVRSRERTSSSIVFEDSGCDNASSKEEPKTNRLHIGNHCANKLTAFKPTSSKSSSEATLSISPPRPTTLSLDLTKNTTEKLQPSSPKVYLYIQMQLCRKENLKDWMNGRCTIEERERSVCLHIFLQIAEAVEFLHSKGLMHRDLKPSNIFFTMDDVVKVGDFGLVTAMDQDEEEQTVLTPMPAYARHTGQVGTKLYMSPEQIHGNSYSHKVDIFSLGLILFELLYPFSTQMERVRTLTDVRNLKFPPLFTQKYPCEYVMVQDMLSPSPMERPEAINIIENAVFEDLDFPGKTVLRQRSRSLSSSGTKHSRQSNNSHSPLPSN
# Nonstructural protein 1 = Nonstructural protein 1 (Influenza A virus, UniProt Q194T2); format: functional, Influenza A virus (A/California/07/2009(H1N1))
# [2] = target: T1, Eukaryotic translation initiation factor 2-alpha kinase 3; assay: Dose response cell-based high-throughput screening assay to measure PERK inhibition. [Related pubchem assays: 1416 ]; format: functional
# Cytochrome P450 2C19 = Cytochrome P450 2C19 (Homo sapiens, UniProt P33261); assay: Cytochrome panel assay with activity outcomes. Panel member name: p450-cyp2c19 Compounds with AC50 equal or less than 10 uM are considered active; format: functional
# Cytochrome P450 2C9 [3] = target: T2, Cytochrome P450 2C9 (Homo sapiens, UniProt P11712)
# [4] = growth suppression of PTEN-null colon cells, dose response, cell-based, HCT116 PTEN knockout (AID 1047); format: functional;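 also: HCT116 colon tumor cells with PTEN knocked out; cells exposed to compound for 60 hours before readout; potency for loss of cell viability measured by luminescence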
# [5] = growth suppression of beta-catenin-knockout colon cells, dose response, cell-based, HCT116, human colon tumor (AID 1045); format: functional;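 also: HCT116 colon tumor cells with beta catenin knocked out; cells exposed to compound for 60 hours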
# Bcl-2-like protein 10 = Bcl-2-like protein 10 (Homo sapiens, UniProt Q9HD36); assay: displacers of TR3 peptide from Bcl-B, primary screen, selectivity assay for Bfl-1 inhibitor project, biochemical, fluorescence polarization, FITC-TR3 peptide (AID 748);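 also: fluorescence polarization from a fluorescein-labelled TR3 peptide binding purified Bcl-B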
# [6] = target: Eukaryotic translation initiation factor 4H (Homo sapiens, UniProt Q15056); assay: human eIF4H binding inhibitors, primary screen, translation initiation inhibitor project, biochemical, uHTS, fluorescence polarization (AID 2012)
# [7] = target: T3, Polyadenylate-binding protein 1 (Homo sapiens, UniProt P11940); assay: PABP poly(A) RNA binding inhibitors, primary screen, biochemical, fluorescence polarization, uHTS (AID 2014)
# [8] = inhibitors of intracellular T. cruzi replication, confirmation, NIH3T3 host cells, beta-gal luminescence (AID 2044); format: functional, cell-based;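 also: intracellular parasites grown in NIH/3T3 mouse fibroblasts as host cells; luminescent beta-galactosidase reporter signal from transgenic T. cruzi replicating inside host cells; inhibitors lower the luminescence signal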
# [9] = cytotoxicity toward NIH3T3 fibroblasts, dose response, counter-screen, cell-based, ATP luminescence, mouse fibroblasts (AID 2010); format: functional;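 also: cells exposed to compound for about 90 hours before reading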
# [10] = target: Likely tRNA 2'-phosphotransferase (Candida albicans (strain SC5314 / ATCC MYA-2876) (Yeast), UniProt Q5A7N4); assay: TPT1 tRNA phosphotransferase inhibitors, dose response, biochemical, fluorescence polarization (AID 2160)
# [11] = target: Guanyl-specific ribonuclease T1 (Aspergillus oryzae (strain ATCC 42149 / RIB 40), UniProt P00651); assay: RNase T1 inhibitors, dose response, counter-screen for TPT1 inhibitor project, biochemical, fluorescence polarization, 1536-well (AID 2167)
# [12] = target: T4, Zinc finger protein mex-5 (Caenorhabditis elegans, UniProt Q9XUB2); assay: MEX-5/TCR-2 RNA interaction inhibitors, dose response, biochemical, C. elegans, fluorescence polarization (AID 1960)
# T4 sequence (Q9XUB2 whole entry): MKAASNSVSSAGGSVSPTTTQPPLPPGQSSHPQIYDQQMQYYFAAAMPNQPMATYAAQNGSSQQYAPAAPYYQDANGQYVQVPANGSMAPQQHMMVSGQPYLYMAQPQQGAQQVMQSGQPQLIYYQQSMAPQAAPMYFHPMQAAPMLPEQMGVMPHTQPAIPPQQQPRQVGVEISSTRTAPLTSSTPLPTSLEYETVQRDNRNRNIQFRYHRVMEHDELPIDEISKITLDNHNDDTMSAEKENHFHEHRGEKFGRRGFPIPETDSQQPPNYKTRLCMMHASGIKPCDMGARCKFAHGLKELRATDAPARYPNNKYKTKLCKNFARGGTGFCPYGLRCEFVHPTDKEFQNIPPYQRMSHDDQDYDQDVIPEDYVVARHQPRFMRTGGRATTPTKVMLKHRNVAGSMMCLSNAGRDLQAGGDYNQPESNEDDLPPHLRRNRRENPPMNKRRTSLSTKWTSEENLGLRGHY
# [13] = target: T5, RNA-binding protein pos-1 (Caenorhabditis elegans, UniProt G5EF15); assay: inhibitors of POS-1/mex-3 RNA binding, dose response, biochemical, fluorescence polarization (AID 1964);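 also: purified POS-1 fused to maltose binding protein made in E. coli; potency of compounds blocking POS-1 binding to fluorescent RNA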
# T5 sequence (G5EF15 whole entry): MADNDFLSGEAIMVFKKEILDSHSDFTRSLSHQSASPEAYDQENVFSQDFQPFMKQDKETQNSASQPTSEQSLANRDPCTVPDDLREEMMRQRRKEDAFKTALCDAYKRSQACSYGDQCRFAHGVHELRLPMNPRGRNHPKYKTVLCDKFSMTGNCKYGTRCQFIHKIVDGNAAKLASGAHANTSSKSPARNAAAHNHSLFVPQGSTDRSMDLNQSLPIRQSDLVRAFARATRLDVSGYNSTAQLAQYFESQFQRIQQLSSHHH
# [14] = Luminescence Cell-Based Dose Response HTS to Identify Activators of Luciferase Translation or Activity in H4 […] Cells. [Related pubchem assays: 1829 (Project Summary), 1814 (Primary HTS)]; format: functional
# [15] = Luminescence Cell-Based Dose Response to Identify Activators of 5'UTR Stem-Loop Driven Prion Protein mRNA Translation in H4-C Neuroglioblastoma Cells. [Related pubchem assays: 1829 (Project Summary), 1814 (Primary HTS)]; format: functional
# [16] = Luminescence Cell-Based Dose Confirmation HTS to Identify Activators of 5'UTR Stem-Loop Driven Alpha-Synuclein mRNA Translation in H4 Neuroglioblastoma Cells. [Related pubchem assays: 1829 (Project Summary), 1814 (Primary HTS)]; format: functional
# [17] = Luminescence Cell-Based Dose Confirmation to Identify Activators of 5'UTR Stem-Loop Driven Alpha-Synuclein mRNA Translation in H4 Neuroglioblastoma Cells. [Related pubchem assays: 1829 (Project Summary), 1814 (Primary HTS)]; format: functional
# H4 = assay: Luminescence Cell-Based Dose Response HTS to Identify Activators of 5'UTR Stem-Loop Driven Prion Protein mRNA Translation in H4 Neuroglioblastoma Cells. [Related pubchem assays: 1829 (Project Summary), 1814 (Primary HTS)]; format: functional; conditions: Homo sapiens
# [18] = Luminescence Cell-Based Dose Response to Identify Activators of Luciferase Translation or Activity in H4-C Neuroglioblastoma Cells. [Related pubchem assays: 1829 (Project Summary), 1814 (Primary HTS)]; format: functional
# [19] = target: DNA dC->dU-editing enzyme APOBEC-3A (Homo sapiens, UniProt P31941); assay: Dose Response confirmation of small molecule APOBEC3A DNA Deaminase Inhibitors via a fluorescence-based single-stranded DNA deaminase assay. [Related pubchem assays (depositor defined):AID493011, AID493024]; format: functional
# [20] = target: DNA dC->dU-editing enzyme APOBEC-3G (Homo sapiens, UniProt Q9HC16); format: functional;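 also: Dose-response counterscreen measuring inhibition of APOBEC3G DNA deaminase activity, run while confirming APOBEC3A inhibitors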
# [21] = target: Female germline-specific tumor suppressor gld-1 (Caenorhabditis elegans, UniProt Q17339); assay: inhibitors of GLD-1 binding to TGE RNA, dose response, biochemical, fluorescence polarization, C. elegans (AID 2802);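 also: fluorescence polarization of labeled TGE RNA bound by purified gld-1 protein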
# Protein Rev = Protein Rev (Human immunodeficiency virus type 1 group M subtype B (isolate HXB2)(HIV-1), UniProt P04618); assay: inhibitors of Rev binding to RRE RNA, dose response, biochemical, fluorescence polarization, HIV-1 (AID 434976); set-up: species or system Human immunodeficiency virus 1
# [22] = target: T3, Polyadenylate-binding protein 1; assay: PABP1 MLLE–PAM2 binding inhibitor potency, dose response, biochemical, fluorescence polarization, FITC-PAM2 peptide (AID 602259); format: functional; conditions: read-out: IC50_Mean
# [23] = target: T3, Polyadenylate-binding protein 1; assay: PABP1 MLLE–PAM2 interaction inhibitors, dose response, miRNA deadenylation inhibitor project, biochemical, fluorescence polarization, Cy5-PAM2 peptide, secondary (AID 602260); format: functional; conditions: read-out: IC50_Mean
# Cytochrome P450 2C9 [24] = target: T2, Cytochrome P450 2C9; conditions: Potency
# NADPH oxidase 1 = target: T6, NADPH oxidase 1 (Homo sapiens, UniProt Q9Y5S8); format: functional, cell-based;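 also: Cell-based assay with luminescence read-out, IC50 derived from inhibitor dose-response curves; intracellular ROS from endogenous NOX1 in intact HT29 colon cancer cells; potency of inhibitors that lower the ROS luminescence signal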
# T6 sequence (Q9Y5S8 whole entry): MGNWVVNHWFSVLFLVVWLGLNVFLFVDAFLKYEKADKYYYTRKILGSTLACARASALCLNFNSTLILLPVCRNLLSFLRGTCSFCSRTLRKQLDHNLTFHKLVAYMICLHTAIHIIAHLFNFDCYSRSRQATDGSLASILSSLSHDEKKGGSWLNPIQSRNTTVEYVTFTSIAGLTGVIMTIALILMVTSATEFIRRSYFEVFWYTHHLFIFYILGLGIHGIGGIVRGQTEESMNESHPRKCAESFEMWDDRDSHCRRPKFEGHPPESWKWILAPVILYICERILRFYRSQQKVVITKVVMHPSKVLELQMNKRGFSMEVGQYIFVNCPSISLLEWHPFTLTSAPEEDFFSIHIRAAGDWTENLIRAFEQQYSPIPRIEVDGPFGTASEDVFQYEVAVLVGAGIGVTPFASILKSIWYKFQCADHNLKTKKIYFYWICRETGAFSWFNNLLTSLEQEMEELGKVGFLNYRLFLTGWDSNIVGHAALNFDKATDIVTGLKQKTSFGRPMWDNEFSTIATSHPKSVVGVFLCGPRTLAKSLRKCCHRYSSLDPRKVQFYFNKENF
# T3 sequence (P11940 whole entry): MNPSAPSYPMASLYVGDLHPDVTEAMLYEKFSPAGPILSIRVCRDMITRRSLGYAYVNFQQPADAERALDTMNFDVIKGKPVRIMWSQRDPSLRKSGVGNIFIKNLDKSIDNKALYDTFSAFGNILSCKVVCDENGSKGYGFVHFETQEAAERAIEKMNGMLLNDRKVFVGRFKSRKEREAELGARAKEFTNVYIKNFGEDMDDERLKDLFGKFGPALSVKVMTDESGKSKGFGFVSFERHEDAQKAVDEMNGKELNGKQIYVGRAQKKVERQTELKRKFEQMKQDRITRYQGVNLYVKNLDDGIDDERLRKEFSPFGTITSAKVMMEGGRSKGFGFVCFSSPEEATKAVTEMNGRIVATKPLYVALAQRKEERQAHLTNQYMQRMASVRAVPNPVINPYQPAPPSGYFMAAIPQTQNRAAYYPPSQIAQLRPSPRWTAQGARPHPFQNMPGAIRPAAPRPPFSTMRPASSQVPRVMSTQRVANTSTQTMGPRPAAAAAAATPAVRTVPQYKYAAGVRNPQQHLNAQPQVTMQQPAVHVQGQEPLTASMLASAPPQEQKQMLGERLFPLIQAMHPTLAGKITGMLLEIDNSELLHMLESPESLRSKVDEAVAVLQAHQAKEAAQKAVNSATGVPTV
# Sequence of Bcl-2-like protein 10 (Q9HD36 whole entry): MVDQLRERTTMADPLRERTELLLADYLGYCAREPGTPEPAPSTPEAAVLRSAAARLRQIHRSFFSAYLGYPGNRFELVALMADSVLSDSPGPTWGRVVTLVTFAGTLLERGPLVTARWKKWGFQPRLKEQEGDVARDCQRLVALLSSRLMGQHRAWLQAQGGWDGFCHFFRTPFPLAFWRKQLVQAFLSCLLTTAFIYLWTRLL
# T2 sequence (P11712 whole entry): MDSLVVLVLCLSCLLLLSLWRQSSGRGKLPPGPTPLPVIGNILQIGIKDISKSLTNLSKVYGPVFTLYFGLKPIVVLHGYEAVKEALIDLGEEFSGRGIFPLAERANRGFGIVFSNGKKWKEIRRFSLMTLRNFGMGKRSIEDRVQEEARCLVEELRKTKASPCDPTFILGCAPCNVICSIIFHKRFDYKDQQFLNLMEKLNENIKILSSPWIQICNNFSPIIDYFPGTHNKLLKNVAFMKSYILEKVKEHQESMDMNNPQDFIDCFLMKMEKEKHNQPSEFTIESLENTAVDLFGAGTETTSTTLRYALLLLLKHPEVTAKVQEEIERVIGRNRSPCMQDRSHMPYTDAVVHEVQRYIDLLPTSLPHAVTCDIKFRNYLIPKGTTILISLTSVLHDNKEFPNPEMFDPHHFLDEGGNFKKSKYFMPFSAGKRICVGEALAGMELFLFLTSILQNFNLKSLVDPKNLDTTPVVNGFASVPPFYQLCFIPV
# Sequence of Cytochrome P450 2C19 (P33261 whole entry): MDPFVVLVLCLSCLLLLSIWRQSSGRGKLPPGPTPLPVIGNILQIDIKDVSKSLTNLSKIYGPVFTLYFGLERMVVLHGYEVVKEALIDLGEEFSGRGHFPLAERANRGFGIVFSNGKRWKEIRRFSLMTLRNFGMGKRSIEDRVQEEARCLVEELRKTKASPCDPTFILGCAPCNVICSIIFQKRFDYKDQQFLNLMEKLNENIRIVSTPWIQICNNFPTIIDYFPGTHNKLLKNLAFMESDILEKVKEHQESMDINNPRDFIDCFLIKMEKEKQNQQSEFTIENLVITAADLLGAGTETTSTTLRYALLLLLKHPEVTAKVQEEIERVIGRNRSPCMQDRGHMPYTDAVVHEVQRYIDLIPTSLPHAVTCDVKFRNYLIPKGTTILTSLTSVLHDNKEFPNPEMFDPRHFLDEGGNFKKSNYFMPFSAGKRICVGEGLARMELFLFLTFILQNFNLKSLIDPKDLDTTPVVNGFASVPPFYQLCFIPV
# Sequence of Guanyl-specific ribonuclease T1 (P00651 whole entry): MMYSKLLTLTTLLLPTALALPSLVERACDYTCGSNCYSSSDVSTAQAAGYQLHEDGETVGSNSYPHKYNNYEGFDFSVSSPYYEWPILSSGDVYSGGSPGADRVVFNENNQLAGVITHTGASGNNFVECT
# Sequence of Likely tRNA 2'-phosphotransferase (Q5A7N4 whole entry): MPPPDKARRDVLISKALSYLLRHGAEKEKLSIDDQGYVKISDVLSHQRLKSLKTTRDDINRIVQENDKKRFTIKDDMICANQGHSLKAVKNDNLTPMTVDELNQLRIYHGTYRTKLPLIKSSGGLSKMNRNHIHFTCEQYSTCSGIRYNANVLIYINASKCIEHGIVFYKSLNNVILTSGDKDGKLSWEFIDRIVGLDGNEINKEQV
# Sequence of DNA dC->dU-editing enzyme APOBEC-3A (P31941 whole entry): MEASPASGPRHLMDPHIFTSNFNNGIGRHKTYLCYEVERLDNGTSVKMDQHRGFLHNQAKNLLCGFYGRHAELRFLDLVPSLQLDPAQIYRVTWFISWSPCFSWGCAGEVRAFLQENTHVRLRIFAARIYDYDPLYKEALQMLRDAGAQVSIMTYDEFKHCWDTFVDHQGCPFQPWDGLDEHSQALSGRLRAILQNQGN
# Sequence of Protein Rev (P04618 whole entry): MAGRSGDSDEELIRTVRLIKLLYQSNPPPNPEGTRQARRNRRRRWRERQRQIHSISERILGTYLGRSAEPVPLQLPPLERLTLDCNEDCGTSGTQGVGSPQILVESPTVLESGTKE
# Sequence of DNA dC->dU-editing enzyme APOBEC-3G (Q9HC16 whole entry): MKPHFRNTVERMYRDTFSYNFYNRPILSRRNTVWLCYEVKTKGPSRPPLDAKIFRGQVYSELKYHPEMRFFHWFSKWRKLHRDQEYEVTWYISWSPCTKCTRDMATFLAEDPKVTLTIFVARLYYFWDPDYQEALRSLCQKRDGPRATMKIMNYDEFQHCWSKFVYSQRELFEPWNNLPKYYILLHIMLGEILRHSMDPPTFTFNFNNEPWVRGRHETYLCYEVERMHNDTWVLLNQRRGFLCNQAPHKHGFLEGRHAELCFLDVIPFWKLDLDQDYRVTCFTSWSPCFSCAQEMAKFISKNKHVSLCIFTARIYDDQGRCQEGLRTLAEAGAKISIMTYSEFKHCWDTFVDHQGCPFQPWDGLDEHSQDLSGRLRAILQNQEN
# Sequence of Female germline-specific tumor suppressor gld-1 (Q17339 whole entry): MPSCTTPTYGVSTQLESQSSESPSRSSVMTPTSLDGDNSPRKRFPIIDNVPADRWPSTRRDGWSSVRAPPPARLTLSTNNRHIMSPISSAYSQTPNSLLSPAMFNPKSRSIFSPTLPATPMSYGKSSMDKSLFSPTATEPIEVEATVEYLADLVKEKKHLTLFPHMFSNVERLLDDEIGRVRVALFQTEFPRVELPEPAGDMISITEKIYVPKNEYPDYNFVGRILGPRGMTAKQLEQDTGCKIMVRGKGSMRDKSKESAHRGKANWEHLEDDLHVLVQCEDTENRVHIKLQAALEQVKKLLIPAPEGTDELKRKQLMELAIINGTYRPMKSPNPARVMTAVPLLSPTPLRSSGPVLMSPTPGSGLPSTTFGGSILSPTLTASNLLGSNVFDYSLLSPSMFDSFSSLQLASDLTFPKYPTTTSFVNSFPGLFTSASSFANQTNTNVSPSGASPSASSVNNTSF
# Sequence of Nonstructural protein 1 (Q194T2 whole entry): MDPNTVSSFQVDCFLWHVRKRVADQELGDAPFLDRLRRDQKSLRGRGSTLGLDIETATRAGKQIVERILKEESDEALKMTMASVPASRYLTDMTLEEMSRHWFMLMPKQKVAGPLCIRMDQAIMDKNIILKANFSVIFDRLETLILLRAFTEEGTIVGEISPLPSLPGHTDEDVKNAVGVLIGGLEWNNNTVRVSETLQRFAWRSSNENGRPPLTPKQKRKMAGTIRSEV
structure (smiles),measurement,setting,value
O=C(Cn1cnc([N+](=O)[O-])n1)N/N=C/c1ccccc1O,EC50,[1],> 55.7 µM (not active)
same,IC50,Nonstructural protein 1,9.05 µM (active)
same,EC50,[2],> 55.7 µM (not active)
same,AC50,Cytochrome P450 2C19,inconclusive
same,AC50,Cytochrome P450 2C9 [3],10 µM (inconclusive)
Cc1ccccc1NC(=O)NCCCN1CCCC1,EC50,[1],> 55.7 µM (not active)
same,EC50,[2],> 55.7 µM (not active)
COc1ccc(-c2coc3c(CN4CCCCC4)c(O)c(CN4CCCCC4)c(O)c3c2=O)cc1,EC50,[4],34.4 µM (active)
same,EC50,[5],32.6 µM (active)
same,IC50,Bcl-2-like protein 10,79.7 µM (inactive)
Cc1ccc[n+](CC(=O)c2ccccc2)c1,IC50,[6],> 100 µM (inactive)
same,IC50,[7],5.7 µM (active)
O=C(CCC1CCCN(Cc2cccc3c2OCO3)C1)NCc1ccc(F)c(F)c1 (stereo not given),EC50,[8],< 0.1 µM (active)
same,EC50,[9],> 60 µM (not active)
same,EC50,cells,0.216 µM (active)
CCOc1cc(/C=C2\C(=O)NC(=O)N(CCc3ccc(F)cc3)C2=O)ccc1O,IC50,[10],> 55.7 µM (not active)
same,IC50,[11],28 µM (not active)
same,EC50,[12],> 300 µM (not active)
same,EC50,[13],> 300 µM (not active)
COc1ccc(/C=N/NC(=O)c2ccc[nH]2)cc1,EC50,[14],0.114 µM (active)
same,EC50,[15],0.46 µM (active)
same,EC50,[16],0.155 µM (active)
same,EC50,[17],0.343 µM (active)
same,EC50,H4,< 0.1 µM (active)
same,EC50,[18],0.324 µM (active)
C[N+]1(CC(O)c2ccccc2)CCCCCC1 (stereo not given),IC50,[6],60.9 µM (active)
same,IC50,[7],5.42 µM (active)
same,IC50,[19],2.71 µM (active)
same,IC50,[20],4.26 µM (active)
CN(C(=O)CN1C(=O)c2cccc(N)c2C1=O)C1CCCCC1,IC50,[21],4.29 µM (active)
same,IC50,Protein Rev,> 8.39 µM (active)
same,IC50,[22],32.6 µM (inactive)
same,IC50,[23],> 66 µM (inactive)
CC(C)[C@@H](CC(=O)N[C@@H]1CCNC[C@H]1C(=O)N[C@H](CC(=O)N[C@@H](CCC(=O)O)CC(=O)O)Cc1c[nH]c2ccccc12)NC(=O)C[C@H](CO)NC(=O)[C@@H]1CNCC[C@H]1N,AC50,Cytochrome P450 2C9 [24],39.8 µM (inconclusive)
Cc1cc(=O)oc2cc(NC(=O)c3ccccc3Cl)ccc12,EC50,[14],< 0.1 µM (active)
same,EC50,[15],0.345 µM (active)
same,EC50,[17],0.208 µM (active)
same,EC50,[18],0.364 µM (active)
O=[N+]([O-])c1ccc2c(c1)Sc1ccc(C(F)(F)F)cc1N2,IC50,NADPH oxidase 1,1.41 µM (active)
O=C(COC(=O)CC12CC3CC(CC(C3)C1)C2)Nc1ncc(Cl)cc1Cl,IC50,Bcl-2-like protein 10,40.2 µM (active)
